pIC50: −log10 of the molar value.
Tests used:
Plasmodium falciparum [1] = assay: microbe, parasite or virus in culture
Description: Antimalarial activity against Plasmodium falciparum 3D7 in erythrocytes

Plasmodium falciparum [2] = assay: microbe, parasite or virus in culture; remark: listed apart in the source
Description: Antimalarial activity against Plasmodium falciparum Dd2 in erythrocytes

## CCCOc1ccc(/C=C/C(=O)Nc2ccc(NC(=O)Cc3ccc(Br)cc3)c(C(=O)c3ccccc3)c2)cc1
Plasmodium falciparum [1]
  pIC50: 6.85
Plasmodium falciparum [2]
  pIC50: 6.51

## CCCOc1ccc(/C=C/C(=O)Nc2ccc(NC(=O)c3ccccc3)c(C(=O)c3ccccc3)c2)cc1
Plasmodium falciparum [1]
  pIC50: 5.19
Plasmodium falciparum [2]
  pIC50: 5.05

## CC1(C)N=C(N)N=C(N)N1c1ccc(Cl)cc1 [CYCLOGUANIL]
Plasmodium falciparum [1]
  pIC50: 8.12

## CCCOc1ccc(/C=C/C(=O)Nc2ccc(NC(=O)Cc3ccccc3C)c(C(=O)c3ccccc3)c2)cc1
Plasmodium falciparum [1]
  pIC50: 5.85
Plasmodium falciparum [2]
  pIC50: 5.62

## CCCOc1ccc(/C=C/C(=O)Nc2ccc(NC(=O)Cc3ccc(C(F)(F)F)cc3)c(C(=O)c3ccccc3)c2)cc1
Plasmodium falciparum [1]
  pIC50: 7.00
Plasmodium falciparum [2]
  pIC50: 6.92

## C=C[C@H]1CN2CC[C@H]1C[C@H]2[C@H](O)c1ccnc2ccc(OC)cc12 [QUININE]
Plasmodium falciparum [1]
  pIC50: 7.02

## CCCOc1ccc(/C=C/C(=O)Nc2ccc(NC(=O)Cc3ccc(OC)cc3)c(C(=O)c3ccccc3)c2)cc1
Plasmodium falciparum [1]
  pIC50: 5.92
Plasmodium falciparum [2]
  pIC50: 5.89

## CCCOc1ccc(/C=C/C(=O)Nc2ccc(NC(=O)Cc3ccc(Cl)cc3)c(C(=O)c3ccccc3)c2)cc1
Plasmodium falciparum [1]
  pIC50: 6.57
Plasmodium falciparum [2]
  pIC50: 6.46

## CCCOc1ccc(/C=C/C(=O)Nc2ccc(NC(=O)Cc3ccc(C)cc3)c(C(=O)c3ccccc3)c2)cc1
Plasmodium falciparum [1]
  pIC50: 6.60
Plasmodium falciparum [2]
  pIC50: 6.47

## CCCOc1ccc(/C=C/C(=O)Nc2ccc(NC(=O)c3cccc4ccccc34)c(C(=O)c3ccccc3)c2)cc1
Plasmodium falciparum [1]
  pIC50: 5.57
Plasmodium falciparum [2]
  pIC50: 5.47

## CCCOc1ccc(/C=C/C(=O)Nc2ccc(NC(=O)Cc3ccccc3)c(C(=O)c3ccccc3)c2)cc1
Plasmodium falciparum [1]
  pIC50: 5.72
Plasmodium falciparum [2]
  pIC50: 5.60

## CCCOc1ccc(/C=C/C(=O)Nc2ccc(NC(=O)/C=C/c3ccc(OCCC)cc3)c(C(=O)c3ccccc3)c2)cc1
Plasmodium falciparum [1]
  pIC50: 4.70
Plasmodium falciparum [2]
  pIC50: 4.64

## CCCCN(CCCC)CC(O)c1cc(Cl)cc2c1-c1ccc(Cl)cc1C2=Cc1ccc(Cl)cc1 (centres undefined) [LUMEFANTRINE]
Plasmodium falciparum [1]
  pIC50: 7.54
Plasmodium falciparum [2]
  pIC50: 7.52

## CCCOc1ccc(/C=C/C(=O)Nc2ccc(NC(=O)Cc3ccc(-c4ccccc4)cc3)c(C(=O)c3ccccc3)c2)cc1
Plasmodium falciparum [1]
  pIC50: 4.72
Plasmodium falciparum [2]
  pIC50: 4.62

## CCCOc1ccc(/C=C/C(=O)Nc2ccc(NC(=O)Cc3ccccc3Br)c(C(=O)c3ccccc3)c2)cc1
Plasmodium falciparum [1]
  pIC50: 5.70
Plasmodium falciparum [2]
  pIC50: 5.55

## CCc1nc(N)nc(N)c1-c1ccc(Cl)cc1 [PYRIMETHAMINE]
Plasmodium falciparum [1]
  pIC50: 8.52
